Target: T1, Muscarinic acetylcholine receptor M1 (Homo sapiens, UniProt P11229)
T1 sequence (P11229 whole entry): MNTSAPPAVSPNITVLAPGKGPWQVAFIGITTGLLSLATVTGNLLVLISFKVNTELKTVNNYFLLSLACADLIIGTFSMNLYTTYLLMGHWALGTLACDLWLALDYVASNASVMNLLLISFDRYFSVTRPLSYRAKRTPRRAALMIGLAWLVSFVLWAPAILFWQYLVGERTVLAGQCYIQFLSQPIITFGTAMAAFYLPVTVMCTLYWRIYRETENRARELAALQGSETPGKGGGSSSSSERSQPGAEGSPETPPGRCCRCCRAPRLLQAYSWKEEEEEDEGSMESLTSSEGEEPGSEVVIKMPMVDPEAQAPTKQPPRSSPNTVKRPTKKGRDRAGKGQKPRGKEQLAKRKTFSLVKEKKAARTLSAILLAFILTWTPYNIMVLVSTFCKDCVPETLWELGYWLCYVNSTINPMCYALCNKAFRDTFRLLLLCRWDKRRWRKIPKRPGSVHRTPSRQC
Test: Displacement of [3H]N-methylscopolamine chloride from human cloned muscarinic M1 receptor expressed in CHOK1 cells
Format: cell-based, CHO-K1
Details: not given

First: CN1CCN(CC(=O)N2c3ccccc3C(=O)Nc3cccnc32)[C@@H]2CCCC[C@H]21 (relative stereo)
Second: CN1CCN(CC(=O)N2c3ccccc3C(=O)Nc3cccnc32)[C@@H]2CCCC[C@@H]21 (relative stereo)
The Ki of the first is 1.6-fold higher: 2290 nM for the first, 1450 nM for the second. The second binds more tightly here.

For `CN(CCCCCCCCN(C)CCCCCCN(CC(=O)N1c2ccccc2C(=O)Nc2cccnc21)CC(=O)N1c2ccccc2C(=O)Nc2cccnc21)CCCCCCNCC(=O)N1c2ccccc2C(=O)Nc2cccnc21` [TRIPITRAMINE], the Ki was 3.55 nM.

Target: T2, Muscarinic acetylcholine receptor M2 (Homo sapiens, UniProt P08172)
T2 sequence (P08172 whole entry): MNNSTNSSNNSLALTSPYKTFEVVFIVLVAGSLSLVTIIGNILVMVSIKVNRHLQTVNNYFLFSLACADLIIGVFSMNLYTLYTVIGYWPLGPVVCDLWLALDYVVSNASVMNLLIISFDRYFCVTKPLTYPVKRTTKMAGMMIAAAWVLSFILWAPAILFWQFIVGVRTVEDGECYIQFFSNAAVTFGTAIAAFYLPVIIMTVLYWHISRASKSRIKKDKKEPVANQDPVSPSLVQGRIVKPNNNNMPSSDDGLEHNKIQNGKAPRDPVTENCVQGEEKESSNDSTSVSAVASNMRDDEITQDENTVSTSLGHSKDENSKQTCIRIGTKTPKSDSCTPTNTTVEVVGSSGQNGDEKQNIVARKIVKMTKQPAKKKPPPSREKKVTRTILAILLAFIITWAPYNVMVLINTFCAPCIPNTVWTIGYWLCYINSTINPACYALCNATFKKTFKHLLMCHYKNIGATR
Test: Displacement of [3H]N-methylscopolamine chloride from human cloned muscarinic M2 receptor expressed in CHOK1 cells
Format: cell-based, CHO-K1
Details: not given

Going from `CN1CCN(CC(=O)N2c3ccccc3C(=O)Nc3cccnc32)[C@@H]2CCCC[C@H]21` (relative stereo) to `CN1CCN(CC(=O)N2c3ccccc3C(=O)Nc3cccnc32)[C@@H]2CCCC[C@@H]21` (relative stereo), the Ki falls from 1000 nM to 646 nM (1.5-fold). The second binds more tightly here.

Target: Muscarinic acetylcholine receptor M3 (Homo sapiens, UniProt P20309)
Test: Displacement of [3H]N-methylscopolamine chloride from human cloned muscarinic M3 receptor expressed in CHOK1 cells
Format: cell-based, CHO-K1
Details: not given

Chain of Muscarinic acetylcholine receptor M3 (P20309 whole entry): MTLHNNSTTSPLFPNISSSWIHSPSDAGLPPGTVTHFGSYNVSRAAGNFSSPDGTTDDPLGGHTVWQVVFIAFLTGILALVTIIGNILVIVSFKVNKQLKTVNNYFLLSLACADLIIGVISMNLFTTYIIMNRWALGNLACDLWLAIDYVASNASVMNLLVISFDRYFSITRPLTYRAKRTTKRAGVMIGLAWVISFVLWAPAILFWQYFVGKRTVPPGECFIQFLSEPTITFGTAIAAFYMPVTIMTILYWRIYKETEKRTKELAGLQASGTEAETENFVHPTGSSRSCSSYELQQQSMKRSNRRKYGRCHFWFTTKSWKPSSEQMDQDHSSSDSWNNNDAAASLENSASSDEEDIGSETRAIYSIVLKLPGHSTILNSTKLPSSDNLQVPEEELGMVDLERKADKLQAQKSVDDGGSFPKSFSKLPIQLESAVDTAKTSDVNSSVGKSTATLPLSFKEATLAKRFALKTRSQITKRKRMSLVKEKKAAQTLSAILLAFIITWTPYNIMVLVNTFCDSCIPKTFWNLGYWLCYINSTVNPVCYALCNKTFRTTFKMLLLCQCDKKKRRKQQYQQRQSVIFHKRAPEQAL

`CN1CCN(CC(=O)N2c3ccccc3C(=O)Nc3cccnc32)[C@@H]2CCCC[C@H]21` (relative stereo) and `CN1CCN(CC(=O)N2c3ccccc3C(=O)Nc3cccnc32)[C@@H]2CCCC[C@@H]21` (relative stereo) cannot be ordered by Ki: over 10000 nM for the first, over 10000 nM for the second.

For `CN(CCCCCCCCN(C)CCCCCCN(CC(=O)N1c2ccccc2C(=O)Nc2cccnc21)CC(=O)N1c2ccccc2C(=O)Nc2cccnc21)CCCCCCNCC(=O)N1c2ccccc2C(=O)Nc2cccnc21` [TRIPITRAMINE], the Ki was 148 nM.

Target: T3, Muscarinic acetylcholine receptor M4 (Homo sapiens, UniProt P08173)
T3 sequence (P08173 whole entry): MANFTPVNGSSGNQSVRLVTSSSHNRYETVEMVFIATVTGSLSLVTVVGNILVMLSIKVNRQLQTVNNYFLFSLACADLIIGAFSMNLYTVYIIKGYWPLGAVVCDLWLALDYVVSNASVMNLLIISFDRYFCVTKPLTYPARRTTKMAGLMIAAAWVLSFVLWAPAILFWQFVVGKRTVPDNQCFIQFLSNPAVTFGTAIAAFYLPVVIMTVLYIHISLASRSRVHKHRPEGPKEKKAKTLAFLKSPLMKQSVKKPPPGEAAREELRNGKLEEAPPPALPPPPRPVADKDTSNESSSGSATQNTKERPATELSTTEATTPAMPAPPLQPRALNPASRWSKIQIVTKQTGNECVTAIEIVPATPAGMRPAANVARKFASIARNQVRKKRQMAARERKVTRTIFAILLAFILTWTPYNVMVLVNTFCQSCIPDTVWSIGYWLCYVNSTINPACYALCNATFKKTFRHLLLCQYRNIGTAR
Test: Displacement of [3H]N-methylscopolamine chloride from human cloned muscarinic M4 receptor expressed in CHOK1 cells
Format: cell-based, CHO-K1
Details: not given

First: CN1CCN(CC(=O)N2c3ccccc3C(=O)Nc3cccnc32)[C@@H]2CCCC[C@H]21 (relative stereo)
Second: CN1CCN(CC(=O)N2c3ccccc3C(=O)Nc3cccnc32)[C@@H]2CCCC[C@@H]21 (relative stereo)
The Ki of the first is 2.7-fold higher: 6610 nM for the first, 2450 nM for the second. The second binds more tightly here.

Compound `CN(CCCCCCCCN(C)CCCCCCN(CC(=O)N1c2ccccc2C(=O)Nc2cccnc21)CC(=O)N1c2ccccc2C(=O)Nc2cccnc21)CCCCCCNCC(=O)N1c2ccccc2C(=O)Nc2cccnc21` [TRIPITRAMINE] has a Ki of 11.5 nM.

System: not listed separately
Test: Antagonist activity at peripheral muscarinic M2 receptor in guinea pig left atrium assessed as effect on arecaidin propargyl ester-induced contraction after 1 hr
Format: functional, tissue-based
Details: Cavia porcellus, Cardiac atrium, read-out: pA2 (converted)

Going from `CN1CCN(CC(=O)N2c3ccccc3C(=O)Nc3cccnc32)[C@@H]2CCCC[C@H]21` (relative stereo) to `CN1CCN(CC(=O)N2c3ccccc3C(=O)Nc3cccnc32)[C@@H]2CCCC[C@@H]21` (relative stereo), the Kb rises from 87.1 nM to 741 nM (8.5-fold).

Work on `CN1CCN(CC(=O)N2c3ccccc3C(=O)Nc3cccnc32)CC1` [PIRENZEPINE] yielded a Kb of 339 nM.

System: not listed separately
Test: Antagonist activity at peripheral muscarinic M3 receptor in guinea pig longitudinal ileum assessed as effect on arecaidin propargyl ester-induced contraction after 1 hr
Format: functional, tissue-based, Cavia porcellus
Details: not given

`CN(C)[C@@H]1CCCC[C@H]1N(C)CC(=O)N1c2ccccc2C(=O)Nc2cccnc21.O=C(O)C(=O)O.O=C(O)C(=O)O` and `CN(C)[C@H]1CCCC[C@@H]1N(C)CC(=O)N1c2ccccc2C(=O)Nc2cccnc21.O=C(O)C(=O)O.O=C(O)C(=O)O` are within 0.2 log units of each other in pA2: 7.76 for the first, 7.58 for the second.

`CN(C)[C@@H]1CCCC[C@@H]1N(C)CC(=O)N1c2ccccc2C(=O)Nc2cccnc21.O=C(O)C(=O)O.O=C(O)C(=O)O` and `CN(C)[C@H]1CCCC[C@H]1N(C)CC(=O)N1c2ccccc2C(=O)Nc2cccnc21.O=C(O)C(=O)O.O=C(O)C(=O)O` are within 0.2 log units of each other in pA2: 7.57 for the first, 7.64 for the second.

First: CN1CCN(CC(=O)N2c3ccccc3C(=O)Nc3cccnc32)[C@@H]2CCCC[C@H]21 (relative stereo)
Second: CN1CCN(CC(=O)N2c3ccccc3C(=O)Nc3cccnc32)[C@@H]2CCCC[C@@H]21 (relative stereo)
The pA2 of the first is higher: 6.47 for the first, 6.01 for the second.

First: CN1CCN(CC(=O)N2c3ccccc3C(=O)Nc3cccnc32)CC1 [PIRENZEPINE]
Second: CN(CCCCCCCCN(C)CCCCCCN(CC(=O)N1c2ccccc2C(=O)Nc2cccnc21)CC(=O)N1c2ccccc2C(=O)Nc2cccnc21)CCCCCCNCC(=O)N1c2ccccc2C(=O)Nc2cccnc21 [TRIPITRAMINE]
The pA2 of the first is higher: 6.88 for the first, 6.55 for the second.

System: not listed separately
Test: Antagonist activity at peripheral muscarinic M4 receptor in rabbit vas deferens assessed as effect on McN-A-343-induced contraction after 1 hr
Format: functional, tissue-based
Details: Oryctolagus cuniculus, read-out: pA2 (converted)

`CN1CCN(CC(=O)N2c3ccccc3C(=O)Nc3cccnc32)[C@@H]2CCCC[C@H]21` (relative stereo) and `CN1CCN(CC(=O)N2c3ccccc3C(=O)Nc3cccnc32)[C@@H]2CCCC[C@@H]21` (relative stereo) are within 1.5-fold of each other in Kb: 79.4 nM for the first, 60.3 nM for the second.

`CN1CCN(CC(=O)N2c3ccccc3C(=O)Nc3cccnc32)CC1` [PIRENZEPINE] and `CN(CCCCCCCCN(C)CCCCCCN(CC(=O)N1c2ccccc2C(=O)Nc2cccnc21)CC(=O)N1c2ccccc2C(=O)Nc2cccnc21)CCCCCCNCC(=O)N1c2ccccc2C(=O)Nc2cccnc21` [TRIPITRAMINE] are within 1.5-fold of each other in Kb: 8.91 nM for the first, 11.2 nM for the second.

Source: ChEMBL document CHEMBL1155803 (Bioorg Med Chem, 2008)
